In ChEMBL document CHEMBL1138068 (J Med Chem, 2006):
The source made the active and inactive calls. The calls are words filed in the database; no cut-off is given here.

Assays:
Cytochrome P450 2D6 = Cytochrome P450 2D6 (Homo sapiens, UniProt P10635); assay: Inhibition of CYP2D6; type: ADME
[1] = biological target: Neuronal acetylcholine receptor subunit alpha-7 (Rattus norvegicus, UniProt Q05941); assay: Displacement of [125I]alpha-BTX from alpha-7 nAChR in rat hippocampus membrane; type: cell membranes
[2] = biological target: Neuronal acetylcholine receptor subunit alpha-7 (Homo sapiens) (UniProt P36544); assay: Activity at alpha-7 nAChR assessed as stimulation of relative inward current in cultured hippocampal neurons relative to choline; type: functional, tissue-based; settings: Hippocampus
[3] = Half life in rat at 10 mg/kg, po; type: ADME, organism-based; parameters: dose 10 mg/kg, route oral; settings: in vivo
[4] = Half life in rat at 30 mg/kg, po; type: ADME, organism-based; parameters: dose 30 mg/kg, route oral; settings: in vivo
Cytochrome P450 2C9 = Cytochrome P450 2C9 (Homo sapiens, UniProt P11712); assay: Inhibition of CYP2C9; type: ADME
Cytochrome P450 3A4 = Cytochrome P450 3A4 (Homo sapiens, UniProt P08684); assay: Inhibition of CYP3A4; type: ADME
[5] = Tmax in monkey at 1 mg/kg, po; type: ADME, organism-based, Macaca mulatta; parameters: dose 1 mg/kg, route oral; settings: rhesus monkey, in vivo
Rattus norvegicus [6] = assay: Reverse activity against scopolamine-induced impairment of cognitive performance in Wistar rat at 10 mg/kg, po by 8-arm radial maze task method; type: functional, organism-based; parameters: dose 10 mg/kg
[7] = Half life in monkey at 3 mg/kg, po; type: ADME, organism-based, Macaca mulatta; parameters: dose 3 mg/kg, route oral; settings: rhesus monkey, in vivo
[8] = Tmax in monkey at 10 mg/kg, po; type: ADME, organism-based, Macaca mulatta; parameters: dose 10 mg/kg, route oral; settings: rhesus monkey, in vivo
[9] = Oral bioavailability in monkey at 1 mg/kg, po; type: ADME, organism-based, Macaca mulatta; settings: rhesus monkey, in vivo
[10] = Oral bioavailability in monkey at 10 mg/kg, po; type: ADME, organism-based, Macaca mulatta; settings: rhesus monkey, in vivo
Rattus norvegicus [11] = assay: Increase in extracellular dopamine level in Wistar rat medial prefrontal cortex at 30 mg/kg, po; type: functional, organism-based; parameters: dose 30 mg/kg
[12] = Oral bioavailability in rat at 10 mg/kg, po; type: ADME, organism-based; settings: in vivo
Rattus norvegicus [13] = assay: Effect on MK-801-induced sensory gating in Wistar rat at 1 mg/kg, sc; type: functional, organism-based; parameters: dose 1 mg/kg
[14] = Half life in monkey at 3 mg/kg, iv; type: ADME, organism-based, Macaca mulatta; parameters: dose 3 mg/kg, route intravenous; settings: rhesus monkey, in vivo
Adrenergic receptor beta = Adrenergic receptor beta (Homo sapiens, UniProt P08588+P07550+P13945); assay: Binding affinity to adrenergic beta receptor; type: protein assay
[15] = AUC (0-infinity) in monkey at 1 mg/kg, po; type: ADME, organism-based, Macaca mulatta; parameters: time infinity, dose 1 mg/kg, route oral; settings: rhesus monkey, plasma
[16] = biological target: Glutamate receptor ionotropic AMPA (Homo sapiens, UniProt P42261+P42262+P42263+P48058); assay: Binding affinity to AMPA receptor; type: protein-complex assay
[17] = AUC (0-infinity) in monkey at 3 mg/kg, po; type: ADME, organism-based, Macaca mulatta; parameters: time infinity, dose 3 mg/kg, route oral; settings: rhesus monkey, plasma
[18] = Clearance in monkey at 3 mg/kg, iv; type: ADME, organism-based, Macaca mulatta; parameters: dose 3 mg/kg, route intravenous; settings: rhesus monkey, in vivo
[19] = AUC (0-infinity) in rat at 30 mg/kg, po; type: ADME, organism-based; parameters: time infinity, dose 30 mg/kg, route oral; settings: plasma
Histamine H1 receptor = Histamine H1 receptor (Homo sapiens, UniProt P35367); assay: Binding affinity to histamine H1 receptor
[20] = biological target: Serotonin 2 (5-HT2) receptor (Homo sapiens, UniProt P41595+P28223+P28335); assay: Binding affinity to 5HT2 receptor; type: protein assay
[21] = biological target: Adrenergic receptor alpha-2 (Homo sapiens, UniProt P08913+P18825+P18089); assay: Binding affinity to adrenergic alpha2 receptor; type: protein assay
[22] = Oral bioavailability in monkey at 3 mg/kg, po; type: ADME, organism-based, Macaca mulatta; settings: rhesus monkey, in vivo
[23] = Tmax in rat at 10 mg/kg, po; type: ADME, organism-based; parameters: dose 10 mg/kg, route oral; settings: in vivo
[24] = Cmax in monkey at 1 mg/kg, po; type: ADME, organism-based, Macaca mulatta; parameters: dose 1 mg/kg, route oral; settings: rhesus monkey, in vivo
[25] = Oral bioavailability in rat at 30 mg/kg, po; type: ADME, organism-based; settings: in vivo
[26] = Half life in monkey at 1 mg/kg, po; type: ADME, organism-based, Macaca mulatta; parameters: dose 1 mg/kg, route oral; settings: rhesus monkey, in vivo
[27] = Cmax in rat at 30 mg/kg, po; type: ADME, organism-based; parameters: dose 30 mg/kg, route oral; settings: in vivo
[28] = biological target: Muscarinic acetylcholine receptor; assay: Binding affinity to muscarinic receptor; type: protein assay, Homo sapiens
[29] = biological target: Glutamate [NMDA] receptor; assay: Binding affinity to NMDA receptor PCP site; type: protein-complex assay, Homo sapiens
D(4) dopamine receptor = D(4) dopamine receptor (Homo sapiens, UniProt P21917); assay: Binding affinity to D4 receptor
[30] = biological target: 5-hydroxytryptamine receptor 3A (Cavia porcellus) (UniProt O70212); assay: Antagonist activity against 5HT3 receptor assessed as inhibition of 5HT-induced contraction of guinea pig ileum; type: functional, tissue-based
[31] = biological target: Neuronal acetylcholine receptor; alpha4/beta2 (Rattus norvegicus, UniProt P09483+P12390); assay: Inhibition of [3H]Cytisine binding to alpha-4-beta-2 nACh receptor in rat cerebral cortex membrane; type: cell membranes
[32] = Cmax in rat at 10 mg/kg, po; type: ADME, organism-based; parameters: dose 10 mg/kg, route oral; settings: in vivo
[33] = biological target: Serotonin 3 (5-HT3) receptor; assay: Binding affinity to 5HT3 receptor; type: protein-complex assay, Homo sapiens
[34] = Volume of distribution in monkey at 3 mg/kg, iv; type: ADME, organism-based, Macaca mulatta; parameters: dose 3 mg/kg, route intravenous; settings: rhesus monkey, in vivo, read-out: Vss
[35] = Clearance in rat at 3 mg/kg, iv; type: ADME, organism-based; parameters: dose 3 mg/kg, route intravenous; settings: in vivo
[36] = Tmax in monkey at 3 mg/kg, iv; type: ADME, organism-based, Macaca mulatta; parameters: dose 3 mg/kg, route intravenous; settings: rhesus monkey, in vivo
[37] = AUC (0-infinity) in monkey at 10 mg/kg, po; type: ADME, organism-based, Macaca mulatta; parameters: time infinity, dose 10 mg/kg, route oral; settings: rhesus monkey, plasma
[38] = biological target: 5-hydroxytryptamine receptor 1A (Homo sapiens, UniProt P08908); assay: Binding affinity to 5HT1A receptor
[39] = Cmax in monkey at 3 mg/kg, po; type: ADME, organism-based, Macaca mulatta; parameters: dose 3 mg/kg, route oral; settings: rhesus monkey, in vivo
D(1A) dopamine receptor = D(1A) dopamine receptor (Homo sapiens, UniProt P21728); assay: Binding affinity to D1 receptor
D(2) dopamine receptor = D(2) dopamine receptor (Homo sapiens, UniProt P14416); assay: Binding affinity to D2 receptor
Cytochrome P450 2C19 = Cytochrome P450 2C19 (Homo sapiens, UniProt P33261); assay: Inhibition of CYP2C19; type: ADME
[40] = Tmax in rat at 30 mg/kg, po; type: ADME, organism-based; parameters: dose 30 mg/kg, route oral; settings: in vivo
Rattus norvegicus [41] = assay: Reverse activity against scopolamine-induced impairment of cognitive performance in Wistar rat at 3 mg/kg, po by 8-arm radial maze task method; type: functional, organism-based; parameters: dose 3 mg/kg
Histamine H3 receptor = Histamine H3 receptor (Homo sapiens, UniProt Q9Y5N1); assay: Binding affinity to histamine H3 receptor
[42] = Cmax in monkey at 3 mg/kg, iv; type: ADME, organism-based, Macaca mulatta; parameters: dose 3 mg/kg, route intravenous; settings: rhesus monkey, in vivo
D(3) dopamine receptor = D(3) dopamine receptor (Homo sapiens, UniProt P35462); assay: Binding affinity to D3 receptor
[43] = Half life in monkey at 10 mg/kg, po; type: ADME, organism-based, Macaca mulatta; parameters: dose 10 mg/kg, route oral; settings: rhesus monkey, in vivo
Cytochrome P450 1A2 = Cytochrome P450 1A2 (Homo sapiens, UniProt P05177); assay: Inhibition of CYP1A2; type: ADME
[44] = biological target: Glutamate [NMDA] receptor; assay: Binding affinity to NMDA receptor glycine site; type: protein-complex assay, Homo sapiens
[45] = biological target: Adrenergic receptor alpha-1 (Homo sapiens, UniProt P35348+P25100+P35368); assay: Binding affinity to adrenergic alpha-1 receptor; type: protein assay
[46] = AUC (0-infinity) in monkey at 3 mg/kg, iv; type: ADME, organism-based, Macaca mulatta; parameters: dose 3 mg/kg, route intravenous, time infinity; settings: rhesus monkey, plasma
[47] = Permeability in rat assessed as ratio of concentration in brain to plasma at 10 mg/kg, po; type: ADME, organism-based; parameters: dose 10 mg/kg, route oral; settings: brain and plasma, read-out: BBR
[48] = Cmax in monkey at 10 mg/kg, po; type: ADME, organism-based, Macaca mulatta; parameters: dose 10 mg/kg, route oral; settings: rhesus monkey, in vivo
[49] = Volume of distribution in rat at 3 mg/kg, iv; type: ADME, organism-based; parameters: dose 3 mg/kg, route intravenous; settings: in vivo, read-out: Vss
[50] = Half life in rat at 3 mg/kg, iv; type: ADME, organism-based; parameters: dose 3 mg/kg, route intravenous; settings: in vivo
[51] = Tmax in monkey at 3 mg/kg, po; type: ADME, organism-based, Macaca mulatta; parameters: dose 3 mg/kg, route oral; settings: rhesus monkey, in vivo
Rattus norvegicus [52] = assay: Increase in extracellular dopamine level in Wistar rat medial prefrontal cortex at 10 mg/kg, po; type: functional, organism-based; parameters: dose 10 mg/kg
[53] = AUC (0-infinity) in rat at 10 mg/kg, po; type: ADME, organism-based; parameters: time infinity, dose 10 mg/kg, route oral; settings: plasma

Chain of Cytochrome P450 2D6 (P10635 whole entry): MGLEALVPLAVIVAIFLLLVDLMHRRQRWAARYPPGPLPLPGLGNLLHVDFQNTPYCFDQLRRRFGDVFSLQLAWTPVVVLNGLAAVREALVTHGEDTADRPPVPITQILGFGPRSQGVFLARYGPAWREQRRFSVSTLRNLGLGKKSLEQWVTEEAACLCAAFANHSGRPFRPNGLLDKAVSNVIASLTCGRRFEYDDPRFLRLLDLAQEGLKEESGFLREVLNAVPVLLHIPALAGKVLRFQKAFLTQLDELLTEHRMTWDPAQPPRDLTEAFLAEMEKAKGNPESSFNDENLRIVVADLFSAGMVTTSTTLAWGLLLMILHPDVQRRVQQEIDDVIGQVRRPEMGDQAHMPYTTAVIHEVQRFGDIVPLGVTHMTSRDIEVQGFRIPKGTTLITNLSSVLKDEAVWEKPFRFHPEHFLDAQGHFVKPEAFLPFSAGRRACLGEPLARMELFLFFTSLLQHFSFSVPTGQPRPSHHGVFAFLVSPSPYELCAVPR
Chain of Neuronal acetylcholine receptor subunit alpha-7 (Q05941 whole entry): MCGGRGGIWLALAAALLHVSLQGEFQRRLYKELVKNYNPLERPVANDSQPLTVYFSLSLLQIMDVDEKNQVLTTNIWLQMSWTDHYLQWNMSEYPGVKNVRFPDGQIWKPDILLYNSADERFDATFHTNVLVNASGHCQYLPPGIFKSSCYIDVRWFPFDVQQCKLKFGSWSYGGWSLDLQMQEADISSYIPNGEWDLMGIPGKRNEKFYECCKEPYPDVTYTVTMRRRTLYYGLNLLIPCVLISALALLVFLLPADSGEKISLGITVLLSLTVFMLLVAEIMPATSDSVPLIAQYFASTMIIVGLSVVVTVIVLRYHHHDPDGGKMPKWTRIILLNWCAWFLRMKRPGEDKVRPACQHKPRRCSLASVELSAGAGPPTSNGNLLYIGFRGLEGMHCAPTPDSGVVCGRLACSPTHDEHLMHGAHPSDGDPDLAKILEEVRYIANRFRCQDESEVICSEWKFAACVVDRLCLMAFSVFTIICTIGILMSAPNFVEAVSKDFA
Chain of Neuronal acetylcholine receptor subunit alpha-7 (Homo sapiens) (P36544 whole entry): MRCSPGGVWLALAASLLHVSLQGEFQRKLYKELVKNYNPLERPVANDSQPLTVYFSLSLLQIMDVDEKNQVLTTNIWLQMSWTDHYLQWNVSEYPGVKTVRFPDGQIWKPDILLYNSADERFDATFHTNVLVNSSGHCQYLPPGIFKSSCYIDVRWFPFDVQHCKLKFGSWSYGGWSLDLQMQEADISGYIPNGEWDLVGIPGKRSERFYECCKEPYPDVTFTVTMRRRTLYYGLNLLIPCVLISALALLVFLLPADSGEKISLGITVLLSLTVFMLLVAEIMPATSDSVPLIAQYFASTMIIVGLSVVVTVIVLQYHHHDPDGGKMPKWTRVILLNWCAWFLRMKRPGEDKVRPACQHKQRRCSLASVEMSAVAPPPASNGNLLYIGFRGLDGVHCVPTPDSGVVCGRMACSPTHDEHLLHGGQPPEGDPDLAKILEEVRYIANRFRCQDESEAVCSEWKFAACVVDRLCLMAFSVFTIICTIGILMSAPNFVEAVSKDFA
Chain of Cytochrome P450 2C19 (P33261 whole entry): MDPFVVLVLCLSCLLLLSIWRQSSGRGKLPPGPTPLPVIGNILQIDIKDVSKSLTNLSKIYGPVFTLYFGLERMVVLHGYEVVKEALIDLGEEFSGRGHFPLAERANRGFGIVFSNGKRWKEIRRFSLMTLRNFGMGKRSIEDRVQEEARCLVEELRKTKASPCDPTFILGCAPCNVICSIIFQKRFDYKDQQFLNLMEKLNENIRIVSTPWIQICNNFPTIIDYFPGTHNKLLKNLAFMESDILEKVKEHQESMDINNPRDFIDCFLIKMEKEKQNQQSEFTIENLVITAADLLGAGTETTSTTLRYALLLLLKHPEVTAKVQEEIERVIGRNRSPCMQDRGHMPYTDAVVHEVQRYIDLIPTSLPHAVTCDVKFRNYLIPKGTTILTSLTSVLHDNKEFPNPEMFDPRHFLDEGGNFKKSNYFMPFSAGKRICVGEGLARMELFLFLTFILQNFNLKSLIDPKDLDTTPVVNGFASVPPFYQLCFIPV
Chain of 5-hydroxytryptamine receptor 1A (P08908 whole entry): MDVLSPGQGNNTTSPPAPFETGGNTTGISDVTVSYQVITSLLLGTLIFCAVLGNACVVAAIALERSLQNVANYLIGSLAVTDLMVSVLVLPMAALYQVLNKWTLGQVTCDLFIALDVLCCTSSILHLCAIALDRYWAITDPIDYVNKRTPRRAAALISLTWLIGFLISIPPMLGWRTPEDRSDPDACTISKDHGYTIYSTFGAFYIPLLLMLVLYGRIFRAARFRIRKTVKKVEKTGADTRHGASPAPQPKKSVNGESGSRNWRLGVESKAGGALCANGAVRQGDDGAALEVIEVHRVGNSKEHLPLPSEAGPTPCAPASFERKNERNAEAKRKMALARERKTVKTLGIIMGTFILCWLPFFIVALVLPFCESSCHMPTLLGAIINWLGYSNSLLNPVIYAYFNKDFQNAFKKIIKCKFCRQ
Chain of D(2) dopamine receptor (P14416 whole entry): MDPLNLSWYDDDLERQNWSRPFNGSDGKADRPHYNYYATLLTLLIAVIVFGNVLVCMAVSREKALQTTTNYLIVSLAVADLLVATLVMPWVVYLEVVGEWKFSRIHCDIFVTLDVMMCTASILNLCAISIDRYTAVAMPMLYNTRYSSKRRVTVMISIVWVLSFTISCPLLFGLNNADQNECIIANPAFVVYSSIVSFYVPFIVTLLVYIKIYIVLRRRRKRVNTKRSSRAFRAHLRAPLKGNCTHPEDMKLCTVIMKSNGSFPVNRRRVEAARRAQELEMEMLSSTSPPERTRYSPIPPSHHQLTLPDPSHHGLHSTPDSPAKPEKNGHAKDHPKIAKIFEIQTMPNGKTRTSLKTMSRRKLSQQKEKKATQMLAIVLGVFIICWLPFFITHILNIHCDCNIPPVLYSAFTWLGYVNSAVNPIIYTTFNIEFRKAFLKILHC
Chain of Neuronal acetylcholine receptor; alpha4/beta2 (P09483 whole entry): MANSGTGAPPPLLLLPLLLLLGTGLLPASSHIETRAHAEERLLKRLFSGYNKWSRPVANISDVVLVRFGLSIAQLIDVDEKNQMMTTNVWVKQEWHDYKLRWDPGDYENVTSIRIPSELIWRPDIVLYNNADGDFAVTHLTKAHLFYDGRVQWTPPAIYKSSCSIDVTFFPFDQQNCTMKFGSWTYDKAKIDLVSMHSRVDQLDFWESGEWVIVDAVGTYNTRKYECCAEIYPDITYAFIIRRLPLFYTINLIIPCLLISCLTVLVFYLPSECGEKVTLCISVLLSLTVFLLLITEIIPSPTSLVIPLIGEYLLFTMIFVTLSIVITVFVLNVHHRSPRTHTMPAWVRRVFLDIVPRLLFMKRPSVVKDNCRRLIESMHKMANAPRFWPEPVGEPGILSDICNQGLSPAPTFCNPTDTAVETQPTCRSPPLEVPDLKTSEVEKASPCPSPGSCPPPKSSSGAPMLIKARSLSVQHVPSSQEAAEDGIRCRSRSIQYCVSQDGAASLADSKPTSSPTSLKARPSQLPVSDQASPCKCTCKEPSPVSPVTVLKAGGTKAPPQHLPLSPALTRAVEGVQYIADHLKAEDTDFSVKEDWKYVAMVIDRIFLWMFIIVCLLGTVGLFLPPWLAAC
Chain of Neuronal acetylcholine receptor; alpha4/beta2 (P12390 whole entry): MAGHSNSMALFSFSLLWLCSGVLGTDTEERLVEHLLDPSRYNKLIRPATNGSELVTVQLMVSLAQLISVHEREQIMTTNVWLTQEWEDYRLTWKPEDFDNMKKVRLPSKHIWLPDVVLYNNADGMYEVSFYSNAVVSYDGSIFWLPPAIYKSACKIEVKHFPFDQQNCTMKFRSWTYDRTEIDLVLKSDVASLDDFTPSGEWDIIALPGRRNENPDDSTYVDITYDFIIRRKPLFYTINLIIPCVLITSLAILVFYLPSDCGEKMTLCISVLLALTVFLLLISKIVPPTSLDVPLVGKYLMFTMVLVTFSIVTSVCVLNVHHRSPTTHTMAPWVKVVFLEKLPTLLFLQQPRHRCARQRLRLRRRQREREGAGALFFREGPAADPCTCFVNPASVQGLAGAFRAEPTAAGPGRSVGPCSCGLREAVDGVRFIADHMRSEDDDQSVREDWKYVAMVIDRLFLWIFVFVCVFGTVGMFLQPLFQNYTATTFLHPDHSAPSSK
Chain of Cytochrome P450 2C9 (P11712 whole entry): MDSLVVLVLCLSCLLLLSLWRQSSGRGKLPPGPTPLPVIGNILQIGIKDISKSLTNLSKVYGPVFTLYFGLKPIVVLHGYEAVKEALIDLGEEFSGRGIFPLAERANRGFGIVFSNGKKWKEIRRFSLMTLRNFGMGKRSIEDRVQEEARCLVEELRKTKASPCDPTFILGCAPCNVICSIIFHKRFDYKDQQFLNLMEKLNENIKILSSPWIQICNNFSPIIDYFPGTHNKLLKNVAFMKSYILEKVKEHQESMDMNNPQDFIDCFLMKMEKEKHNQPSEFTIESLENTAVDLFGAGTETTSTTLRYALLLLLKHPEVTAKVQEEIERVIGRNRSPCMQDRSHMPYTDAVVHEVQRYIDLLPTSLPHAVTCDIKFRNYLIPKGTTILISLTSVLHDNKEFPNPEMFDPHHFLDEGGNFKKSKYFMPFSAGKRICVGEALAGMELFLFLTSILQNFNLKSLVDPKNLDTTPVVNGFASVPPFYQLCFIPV
Chain of Cytochrome P450 1A2 (P05177 whole entry): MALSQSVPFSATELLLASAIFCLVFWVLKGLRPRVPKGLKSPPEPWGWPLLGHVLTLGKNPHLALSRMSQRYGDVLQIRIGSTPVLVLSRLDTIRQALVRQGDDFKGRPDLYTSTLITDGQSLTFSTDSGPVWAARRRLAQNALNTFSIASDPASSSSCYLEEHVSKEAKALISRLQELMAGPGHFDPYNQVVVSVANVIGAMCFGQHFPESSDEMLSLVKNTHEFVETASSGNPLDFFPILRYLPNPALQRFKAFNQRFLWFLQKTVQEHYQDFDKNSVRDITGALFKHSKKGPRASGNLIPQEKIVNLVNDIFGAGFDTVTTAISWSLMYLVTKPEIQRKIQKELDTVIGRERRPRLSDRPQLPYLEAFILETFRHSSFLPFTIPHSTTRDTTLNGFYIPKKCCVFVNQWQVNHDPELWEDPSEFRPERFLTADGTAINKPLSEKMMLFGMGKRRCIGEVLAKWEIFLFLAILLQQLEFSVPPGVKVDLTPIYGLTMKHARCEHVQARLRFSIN

Compound: O=C1O[C@]2(CN3CCC2CC3)CN1c1ccc2occc2c1
- IC50 (Cytochrome P450 2D6): > 30 µM
- Ki [1]: 19 nM
- Activity ([2]; filed as agonist): Agonist

Compound: O=C1O[C@]2(CN3CCC2CC3)CN1c1ccc2c(c1)OCCO2
- Ki [1]: 175 nM

Compound: Cc1oc2ccc(N3C[C@@]4(CN5CCC4CC5)OC3=O)cc2c1Br
- Ki [1]: 11 nM

Compound: O=C1O[C@]2(CN3CCC2CC3)CN1c1ccc2sc(Cl)cc2c1
- IC50 (Cytochrome P450 2D6): > 30 µM
- Ki [1]: 34 nM

Compound: Cc1cc2cc(N3C[C@@]4(CN5CCC4CC5)OC3=O)ccc2s1
- IC50 (Cytochrome P450 2D6): > 30 µM

Compound: Cc1coc2ccc(N3C[C@@]4(CN5CCC4CC5)OC3=O)cc12
- half-life [3]: 180 min
- half-life [4]: 102 min
- Activity (Cytochrome P450 2C9): Not Active
- Activity (Cytochrome P450 3A4): Not Active
- IC50 (Cytochrome P450 2D6): > 30 µM
- Tmax [5]: 2 h
- Activity (Rattus norvegicus [6]): Dose-dependent effect
- Ki [1]: 3 nM
- half-life [7]: 324 min
- Tmax [8]: 2.3 h
- Activity ([2]; filed as partial agonist): Partial agonist
- bioavailability [9]: 25.8%
- bioavailability [10]: 82.8%
- Activity (Rattus norvegicus [11]): Active
- bioavailability [12]: 10.5%
- Activity (Rattus norvegicus [13]): Active
- half-life [14]: 114 min
- IC50 (Adrenergic receptor beta): > 10 µM
- AUC(0-inf) [15]: 63 ng·h/mL
- IC50 [16]: > 10 µM
- AUC(0-inf) [17]: 387 ng·h/mL
- clearance [18]: 70.2 mL/min/kg
- AUC(0-inf) [19]: 1010 ng·h/mL
- IC50 (Histamine H1 receptor): > 10 µM
- IC50 [20]: > 10 µM
- IC50 [21]: > 10 µM
- bioavailability [22]: 57.2%
- Tmax [23]: 26.4 min
- Cmax [24]: 9.1 ng/mL
- bioavailability [25]: 17.3%
- half-life [26]: 252 min
- Cmax [27]: 618 ng/mL
- IC50 [28]: > 10 µM
- IC50 [29]: > 10 µM
- IC50 (D(4) dopamine receptor): > 10 µM
- Activity [30]: Active
- IC50 [31]: > 10 µM
- Cmax [32]: 120 ng/mL
- IC50 [33]: 10 nM
- Vd [34]: 10.7 L/kg
- clearance [35]: 83.3 mL/min/kg
- Tmax [36]: 21.6 min
- AUC(0-inf) [37]: 2020 ng·h/mL
- IC50 [38]: > 10 µM
- Cmax [39]: 75.5 ng/mL
- IC50 (D(1A) dopamine receptor): > 10 µM
- IC50 (D(2) dopamine receptor): > 10 µM
- Activity (Cytochrome P450 2C19): Not Active
- Tmax [40]: 22.8 min
- Activity (Rattus norvegicus [41]): Dose-dependent effect
- IC50 (Histamine H3 receptor): > 10 µM
- Cmax [42]: 288 ng/mL
- IC50 (D(3) dopamine receptor): > 10 µM
- half-life [43]: 360 min
- Activity (Cytochrome P450 1A2): Not Active
- IC50 [44]: > 10 µM
- IC50 [45]: > 10 µM
- AUC(0-inf) [46]: 732 ng·h/mL
- Kp [47]: 10.2
- Cmax [48]: 384 ng/mL
- Vd [49]: 7.59 L/kg
- half-life [50]: 198 min
- Tmax [51]: 3.3 h
- Activity (Rattus norvegicus [52]): Active
- AUC(0-inf) [53]: 225 ng·h/mL

Compound: O=C1O[C@]2(CN3CCC2CC3)CN1c1ccc2c(c1)CCO2
- Ki [1]: 85 nM
